From US10941177B2, “2′-substituted carba-nucleoside analogs for antiviral treatment” (Gilead Sciences, Inc., priority 2012, dated 2021)
Where two headings read alike, the source gives them in different places.

Experiments:
[1] = system: Influenza B virus B/Lee/40; test: Normal Human Bronchial/Tracheal Epithelial Cell Influenza Infection Assay (EC50), Influenza B Lee/40; assay type: cell-based; settings: Normal Human Bronchial/Tracheal Epithelial Cells, 10 MOI, five day incubation, neuramidase substrate fluorescence, read-out: Infl B Lee/40 EC50
Protocol: Normal Human Bronchial/Tracheal Epithelial Cell Influenza Infection Assay (EC50)
Normal Human Bronchial/Tracheal Epithelial Cells (Lonza, Basel Switzerland) are seeded to 384-well plates at a density of 4000 cells per well in BEGM medium supplemented with growth factors (Lonza, Basel Switzerland). Medium is removed next day, and cells are washed three times with 100 μL of RPMI+1% BSA (RPMI-BSA). 30 μL of RPMI-BSA is added to cells thereafter. Compounds are 3-fold serially diluted in DMSO, and 0.4 μL of compound dilutions are stamped to plates. Influenza A virus HK/8/68 (Advanced Biotechnology Inc, Columbia, Md., 13.5 MOI), PC/1/73 (ATCC Manassas, Va., 0.3 MOI) and Influenza B virus B/Lee/40 ((ATCC Manassas, Va., 10 MOI) are added to cells in 10 μL of RPMI-BSA medium supplemented with 8 ug/mL trypsin (Worthington, Lakewood, N.J.). After a five day incubation, 40 μL of buffer containing 66 mM Mes pH 6.5, 8 mM CaCl2, 0.5% NP-40 and 100 μM neuramidase substrate (2′-(4-Methylumbelliferyl)-α-D-N-acetylneuraminic acid sodium salt hydrate, Sigma Aldrich, St. Luis, Mo.) is added to cells. Fluorescence of the product of hydrolysis is read using excitation at 360 nm and emission at 450 nm after a 1 hour incubation at 37° C. EC50 values are calculated by non-linear regression of multiple data sets.

[2] = system: Influenza A virus PC/1/73; test: microbe, parasite or virus in culture; assay type: cell-based; settings: read-out: Infl A PC/1/73 EC50
Influenza RNA polymerase = Influenza RNA polymerase (Influenza A virus, UniProt P03431); test: Influenza RNA Polymerase Inhibition (IC50) Assay; assay type: biochemical; settings: virus lysate of Influenza A/PR/8/34 (H1N1), 30° C. for 90 minutes, α-33P labeled NTP incorporation
Protocol: Influenza RNA Polymerase Inhibition (IC50) Assay
Influenza A/PR/8/34 (H1N1) purified virus was obtained from Advanced Biotechnologies Inc. (Columbia, Md.) as suspension in PBS buffer. Virions were disrupted by exposure to an equal volume of 2% Triton X-100 for 30 minutes at room temperature in a buffer containing 100 mM Tris-HCl, pH 8, 200 mM KCl, 3 mM dithiothreitol [DTT], 10% glycerol, 10 mM MgCl2, 2 U/mL RNasin Ribonuclease Inhibitor, and 2 mg/mL Lysolechithin type V (Sigma, Saint Louis, Mo.). The virus lysate was stored at −80° C. in aliquots.
The concentrations refer to final concentrations unless mentioned otherwise. Nucleotide analog inhibitors were serially diluted 3 fold in water and added to reaction mix containing 10% virus lysate (v/v), 100 mM Tris-HCl (pH 8.0), 100 mM KCl, 1 mM DTT, 10% glycerol, 0.25% Triton-101 (reduced), 5 mM MgCl2, 0.4 U/mL RNasin, and 200 μM ApG dinucleotide primer (TriLink, San Diego Calif.). […]
Reactions were incubated at 30° C. for 90 minutes then spotted onto DE81 filter paper. Filters were air dried, washed 0.125 M Na2HPO4 (3×), water (1×), and EtOH (1×), and air dried before exposed to Typhoon phosphor imager and radioactivity was quantified on a Typhoon Trio (GE Healthcare, Piscataway N.J.). […]

Influenza RNA polymerase, sequence (P03431 whole entry, looked up): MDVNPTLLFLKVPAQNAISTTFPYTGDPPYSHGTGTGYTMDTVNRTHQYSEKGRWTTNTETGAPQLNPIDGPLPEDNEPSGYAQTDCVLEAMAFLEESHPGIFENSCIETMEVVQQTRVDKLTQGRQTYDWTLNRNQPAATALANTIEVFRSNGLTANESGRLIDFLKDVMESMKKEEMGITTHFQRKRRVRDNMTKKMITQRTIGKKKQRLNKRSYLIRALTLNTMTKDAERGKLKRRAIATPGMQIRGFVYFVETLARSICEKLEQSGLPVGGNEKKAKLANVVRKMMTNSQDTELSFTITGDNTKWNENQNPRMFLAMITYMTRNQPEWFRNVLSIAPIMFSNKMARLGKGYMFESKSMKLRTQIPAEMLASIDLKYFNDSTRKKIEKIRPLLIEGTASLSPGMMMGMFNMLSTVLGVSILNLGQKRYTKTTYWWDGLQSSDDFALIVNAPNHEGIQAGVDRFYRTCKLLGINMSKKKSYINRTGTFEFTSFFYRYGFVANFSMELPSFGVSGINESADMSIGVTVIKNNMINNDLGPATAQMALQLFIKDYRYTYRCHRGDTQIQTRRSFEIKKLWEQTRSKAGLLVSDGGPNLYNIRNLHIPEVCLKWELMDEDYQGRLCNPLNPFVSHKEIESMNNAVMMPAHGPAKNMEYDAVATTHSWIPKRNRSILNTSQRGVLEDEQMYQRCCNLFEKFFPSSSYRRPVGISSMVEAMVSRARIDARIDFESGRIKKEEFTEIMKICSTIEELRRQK

Row | Structure (SMILES) | EC50 [1] [µM] | EC50 [2] [µM] | IC50 (Influenza RNA polymerase) [µM] | EC50 ([1]; Influenza B virus, Epithelial cell, 120 h) [µM] | EC50 ([2]; Influenza A virus, Epithelial cell, 120 h) [µM]
1 | CCOc1nc(N)nn2c([C@@H]3O[C@H](CO)[C@@H](O)[C@H]3F)cnc12 [Compound 18, (2R,3R,4R,5S)-5-(2-amino-4-ethoxyimidazo[1,2-f][1,2,4]triazine-7-yl)-4-fluoro-2-(hydroxymethyl)tetrahydrofuran-3-ol] | > 200 | > 200 |  |  | 
2 | Nc1nn2c([C@@H]3O[C@H](COP(=O)(O)OP(=O)(O)OP(=O)(O)O)[C@@H](O)[C@H]3F)cnc2c(=O)[nH]1 [Compound 8, ((2R, 3R, 4R, 5S)-5-(2-amino-4-oxo-3,4-dihydroimidazo[1,2-J][1,2,4]triazin-7-yl)-4-fluoro-3-hydroxy-3-hydroxytetrahydrofuran-2-yl)methyl tetrahydrogen triphosphate] |  |  | 2.8 |  | 
3 | Nc1ncnn2c([C@H]3O[C@@H](CO)[C@H](O)[C@H]3F)cnc12 [Compound 10, (2S,3S,4R,5R)-5-(4-aminoimidazo[1,2-f][1,2,4]triazin-7-yl)-4-fluoro-2-(hydroxymethyl)tetrahydrofuran-3-ol] | 0.9 | 0.9 |  |  | 
4 | Nc1nn2c([C@@H]3O[C@H](CO)[C@@H](O)[C@@H]3F)cnc2c(=O)[nH]1 [Compound 7] | 37 | 27 |  |  | 
5 | Nc1nc(F)nn2c([C@@H]3O[C@H](CO)[C@@H](O)[C@H]3F)cnc12 [Compound 12, (2R,3R,4R,5S)-5-(4-amino-2-fluoroimidazo[1,2-f][1,2,4]triazin-7-yl)-4-fluoro-2-(hydroxymethyl)tetrahydrofuran-3-ol] | > 100 | > 100 |  |  | 
6 | COc1nc(N)nn2c([C@@H]3O[C@H](CO)[C@@H](O)[C@H]3F)cnc12 [Compound 19, (2R,3R,4R,5S)-5-(2-amino-4-methoxyimidazo[1,2-f][1,2,4]triazin-7-yl)-4-fluoro-2-(hydroxymethyl)tetrahydrofuran-3-ol] |  |  |  | 36 | 30
7 | Nc1nc(N)c2ncc(C3OC(CO)C(O)C3F)n2n1 [Compound 6, (2S,3S,4R,5R)-5-(2,4-diaminoimidazo[1,2-f][1,2,4]triazin-7-yl)-4-fluoro-2-(hydroxymethyl)tetrahydrofuran-3-ol] | 51 | 21 |  |  | 
